Results reported in patent US8546440B2, “Substituted bicyclic imidazole derivatives as gamma secretase modulators” (Janssen Pharmaceuticals, Inc., priority 2008, dated 2013).

Columns and labels:
[1] = system: Aβ42; assay: Screening for γ-secretase-modulating activity, Method 1: Aβ42 sandwich ELISA in supernatant of SKNBE2 cells carrying APP 695 wild type (Tables 12a, 12b); assay type: cell-based
How it was run: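 Aβ42 levels in the supernatant were measured by ELISA with 450 nm colorimetric read-out after 18 h compound exposure of wild-type APP695 SKNBE2 cells plated one day earlier. IC50 was fitted with a 4-parameter model, either with fixed top/bottom and a Hill slope of 1, or as averaged values from % of vehicle control; WST-1 was used to flag cytotoxicity.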

[2] = Homo sapiens, Method 1, Table 12a, SKNBE2 cells carrying APP 695 wild type, compounds 18 hours, ELISA, curve top and bottom fixed to 100 and 0, hill slope 1
[3] = Homo sapiens, Table 12b, Method 1, SKNBE2 cells carrying APP 695 wild type, cell supernatant ELISA, averaged IC50 values, percentage of control vs log concentration

SMILES: COc1cc(Nc2cccn3cc(-c4ccc(F)cc4)nc23)ccc1-n1cnc(C)c1 [Compound 1]
- IC50 [1, 2]: 101 nM
- IC50 [1, 3]: 98 nM
- melting point: 209.2 °C

SMILES: COc1cc(Nc2cccn3c(Cl)c(-c4ccc(F)cc4)nc23)ccc1-n1cnc(C)c1 [Compound 2]
- IC50 [1, 2]: 65 nM
- IC50 [1, 3]: 55 nM
- melting point: 168.9 °C

SMILES: COc1cc(Nc2cccn3cc(C4CCOCC4)nc23)ccc1-n1cnc(C)c1 [Compound 4]
- IC50 [1, 2]: 53 nM
- IC50 [1, 3]: 85 nM

SMILES: COc1cc(Nc2cccn3c(C)c(-c4ccccc4)nc23)ccc1-n1cnc(C)c1 [Compound 5]
- IC50 [1, 2]: 14 nM
- IC50 [1, 3]: 12 nM
- melting point: 177.8 °C

SMILES: COc1cc(Nc2cccn3c(C)c(-c4ccccc4Cl)nc23)ccc1-n1cnc(C)c1 [Compound 15]
- IC50 [1, 2]: 12 nM
- IC50 [1, 3]: 11 nM
- melting point: 204 °C

SMILES: COc1cc(Nc2cccn3c(C)c(-c4c(F)cccc4F)nc23)ccc1-n1cnc(C)c1 [Compound 27]
- IC50 [1, 2]: 25 nM
- IC50 [1, 3]: 25 nM
- melting point: 198.2 °C

SMILES: COc1cc(Nc2cccn3c(C)c(-c4ccccc4C(F)(F)F)nc23)ccc1-n1cnc(C)c1 [Compound 29]
- IC50 [1, 2]: 10 nM
- IC50 [1, 3]: 8 nM

SMILES: COc1cccc(-c2cn3cccc(Nc4ccc(-n5cnc(C)c5)c(OC)c4)c3n2)c1 [Compound 33]
- IC50 [1, 2]: 31 nM
- IC50 [1, 3]: 27 nM

SMILES: COc1cc(Nc2cccn3cc(C)nc23)ccc1-n1cnc(C)c1 [Compound 50]
- IC50 [1, 2]: 253 nM
- IC50 [1, 3]: 251 nM

SMILES: Cc1ncn(-c2ccc(Nc3cccn4cc(-c5ccccc5C)nc34)cc2)n1 [Compound 71]
- IC50 [1, 2]: 288 nM

SMILES: COc1nc(Nc2cccn3c(C)c(-c4ccccc4C(F)(F)F)nc23)ccc1-n1cnc(C)c1 [Compound 138]
- IC50 ([1]; Table 12b, Method 1, SKNBE2 cells carrying APP 695 wild type, cell supernatant ELISA, averaged IC50 values, percentage of control vs log concentration): 9 nM
